In patent US5750754A, “Heterocyclic compounds” (Zeneca Limited, priority 1993, dated 1998):
Structures can show the parent of a compound that is named as a salt.

Experiments:
[1] = tested on: Alderley Park Wistar rats; test: Repeated oral dose study in the rat (liver effects, tolerability); type: in vivo
Description: The following is a description of a study of the effects of the (-)-(3R) compound of Example 246 and the corresponding (3RS)-racemic mixture of Example 203 in the rat. Four groups of ten Alderley Park Wistar rats (each group comprising 5 male and 5 female rats) were dose orally with the (3RS)-racemic mixture of Example 203 at daily doses of 0, 25, 100 or 500 mg/kg. Dosing was continued for a total of seven days. The animals were killed and examined.
Four groups of ten Alderley Park Wistar rats (each group comprising 5 male and 5 female rats) were dosed orally with the (-)-(3R) compound of Example 246 at daily doses of 0, 50, 250 and 1000 mg/kg. The highest dose was not tolerated. After four or five days, four of the animals from this group were killed. The remaining six animals were dosed at 500 mg/kg/day for the remainder of the study. Dosing was continued for a total of fourteen days. The animals were killed and examined.

[2] = target: T1, human, citrated, platelet-rich plasma (Homo sapiens, UniProt P05106+P08514); test: Test (a): inhibition of ADP stimulated platelet aggregation (Born); type: cell-based; conditions: ADP induced aggregation of human platelet-rich plasma; for Kb: read-out: Test (a): pA2 value indicating potency of platelet aggregation inhibition (converted)
T1 construct: aggregating human, citrated, platelet-rich plasma; endogenous in cells; host or cells: human platelets in citrated platelet-rich plasma
T1 sequence (P08514 32-887 limits assumed): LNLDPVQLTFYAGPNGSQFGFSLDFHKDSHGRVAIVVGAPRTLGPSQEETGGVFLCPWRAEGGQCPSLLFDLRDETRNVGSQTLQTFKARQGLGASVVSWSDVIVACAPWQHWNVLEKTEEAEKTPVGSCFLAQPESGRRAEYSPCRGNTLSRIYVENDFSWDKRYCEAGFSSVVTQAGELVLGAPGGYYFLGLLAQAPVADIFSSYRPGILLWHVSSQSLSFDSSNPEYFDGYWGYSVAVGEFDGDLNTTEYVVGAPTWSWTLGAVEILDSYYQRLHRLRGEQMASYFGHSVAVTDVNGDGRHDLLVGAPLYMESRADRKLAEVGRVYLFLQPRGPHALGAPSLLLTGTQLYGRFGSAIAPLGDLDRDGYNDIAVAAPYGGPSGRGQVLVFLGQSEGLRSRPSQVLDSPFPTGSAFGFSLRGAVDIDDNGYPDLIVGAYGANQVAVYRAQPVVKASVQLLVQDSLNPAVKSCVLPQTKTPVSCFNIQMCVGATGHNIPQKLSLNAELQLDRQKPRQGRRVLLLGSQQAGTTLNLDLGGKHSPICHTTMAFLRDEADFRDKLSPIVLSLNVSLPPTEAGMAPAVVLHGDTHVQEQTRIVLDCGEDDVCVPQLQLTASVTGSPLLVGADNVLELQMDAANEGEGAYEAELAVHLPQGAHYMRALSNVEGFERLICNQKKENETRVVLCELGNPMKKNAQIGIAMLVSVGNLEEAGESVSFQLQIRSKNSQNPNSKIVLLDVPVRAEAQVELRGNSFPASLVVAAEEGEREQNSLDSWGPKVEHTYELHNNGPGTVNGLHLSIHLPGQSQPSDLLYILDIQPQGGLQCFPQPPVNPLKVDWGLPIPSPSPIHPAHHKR
T1 sequence (P08514 891-1039 limits assumed): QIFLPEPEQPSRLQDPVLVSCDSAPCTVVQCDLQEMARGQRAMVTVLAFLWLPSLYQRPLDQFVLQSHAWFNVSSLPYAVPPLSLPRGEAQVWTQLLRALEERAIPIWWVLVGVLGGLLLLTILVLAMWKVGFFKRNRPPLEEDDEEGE
T1 sequence (P05106 27-788): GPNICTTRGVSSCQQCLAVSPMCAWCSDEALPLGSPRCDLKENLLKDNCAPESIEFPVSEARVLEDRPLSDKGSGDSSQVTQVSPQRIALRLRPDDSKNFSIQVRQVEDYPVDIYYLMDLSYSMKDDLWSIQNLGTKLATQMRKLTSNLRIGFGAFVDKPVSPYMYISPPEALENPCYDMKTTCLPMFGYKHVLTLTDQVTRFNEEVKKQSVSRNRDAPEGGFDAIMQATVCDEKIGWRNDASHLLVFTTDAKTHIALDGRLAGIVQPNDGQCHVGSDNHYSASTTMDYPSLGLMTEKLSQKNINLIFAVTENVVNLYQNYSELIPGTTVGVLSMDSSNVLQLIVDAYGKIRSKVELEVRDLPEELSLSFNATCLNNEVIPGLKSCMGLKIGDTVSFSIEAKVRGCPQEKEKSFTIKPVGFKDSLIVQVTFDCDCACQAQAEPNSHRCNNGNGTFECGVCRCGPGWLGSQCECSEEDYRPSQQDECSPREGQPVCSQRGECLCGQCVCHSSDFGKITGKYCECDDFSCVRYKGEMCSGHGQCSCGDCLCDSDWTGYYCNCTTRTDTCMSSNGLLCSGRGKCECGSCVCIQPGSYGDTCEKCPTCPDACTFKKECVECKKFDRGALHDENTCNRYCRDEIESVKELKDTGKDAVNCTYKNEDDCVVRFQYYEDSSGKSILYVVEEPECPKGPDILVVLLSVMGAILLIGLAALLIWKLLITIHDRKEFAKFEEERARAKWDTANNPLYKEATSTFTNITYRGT
Summary of the method: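 pA2 calculated by comparing ADP EC50-type (50% response) values in presence and absence of compound, averaged across concentrations (generally 10-^5 M to 10-^10 M). Aggregation (Born) induced by ADP in citrated human platelet-rich plasma, giving dose-response curves.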

[3] = target: T2, purified human platelet fibrinogen receptor (GPIIb/IIIa) (Homo sapiens, UniProt P05106+P08514); test: Test (b): GPIIb/IIIa ELISA, inhibition of biotinylated fibrinogen binding; conditions: for IC50: read-out: Test (b): pIC50 (-log(IC50)), 50% inhibition of biotinylated fibrinogen binding to GPIIb/IIIa (converted)
T2 construct: is isolated from human platelet lysates; from tissue
T2 sequence (P08514 32-887 limits assumed): as the sequence (P08514 32-887 limits assumed) above
T2 sequence (P08514 891-1039 limits assumed): as the sequence (P08514 891-1039 limits assumed) above
T2 sequence (P05106 27-788): as the sequence (P05106 27-788) above
Summary of the method: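 Inhibition of biotinylated fibrinogen ([…]) binding to immobilised human platelet fibrinogen receptor, purified by KYGRGDS peptide affinity chromatography, was measured after 2 h at 30 °C. Readout: streptavidin–biotin-HRP colour with TMB at […]; value expressed as pIC50.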

[4] = tested on: aggregation of human blood platelets; test: Test (a) modified to assess activity on oral administration (ex vivo); type: in vivo, dog; conditions: dogs, 5 mg/kg
Description: Test (a) may be modified so as to assess the effects of a test compound ex vivo on the aggregation of human blood platelets after administration of the test compound to a laboratory animal, such as a rat, rabbit, guinea pig, mouse or dog. For example, groups of four male, fasted Alderley Park Wistar rats are orally dosed with a test compound or appropriate vehicle, and at suitable time intervals (1,3,5 and 8 hours after dosing) animals are anaesthetised with fluothane and bled by heart puncture. Blood is collected into 3.2% citrate (1 part to 9 parts whole blood) and platelet poor plasma (ppp) prepared by centrifugation (4500×g for 10 min). […]
Equal volumes (125 μl) of rat ppp and human prp are mixed together, ADP added, and the whole incubated (37° C.) and stirred (900 rpm) in a BioData platelet aggregometer. Aggregation is induced with ADP and agonist EC50 values calculated for human prp/rat ppp mixtures from animals dosed with test compound or vehicle. A mean concentration ratio (concentration of ADP required to cause a 50% aggregation response in human prp/rat ppp mixtures from animals dosed with antagonist, divided by the concentration of ADP to cause 50% aggregation in human prp/rat ppp mixtures from animals dosed with vehicle) is calculated at each time point.

αv β1 = test: Binding of αv β1 to fibronectin
αv β3 = αv β3 (Homo sapiens, UniProt P05106+P06756); test: Binding of αv β3 to vitronectin; conditions: read-out: pIC50, binding of αv β3 to vitronectin (converted)
αv β3, sequence (P06756 31-889 limits assumed): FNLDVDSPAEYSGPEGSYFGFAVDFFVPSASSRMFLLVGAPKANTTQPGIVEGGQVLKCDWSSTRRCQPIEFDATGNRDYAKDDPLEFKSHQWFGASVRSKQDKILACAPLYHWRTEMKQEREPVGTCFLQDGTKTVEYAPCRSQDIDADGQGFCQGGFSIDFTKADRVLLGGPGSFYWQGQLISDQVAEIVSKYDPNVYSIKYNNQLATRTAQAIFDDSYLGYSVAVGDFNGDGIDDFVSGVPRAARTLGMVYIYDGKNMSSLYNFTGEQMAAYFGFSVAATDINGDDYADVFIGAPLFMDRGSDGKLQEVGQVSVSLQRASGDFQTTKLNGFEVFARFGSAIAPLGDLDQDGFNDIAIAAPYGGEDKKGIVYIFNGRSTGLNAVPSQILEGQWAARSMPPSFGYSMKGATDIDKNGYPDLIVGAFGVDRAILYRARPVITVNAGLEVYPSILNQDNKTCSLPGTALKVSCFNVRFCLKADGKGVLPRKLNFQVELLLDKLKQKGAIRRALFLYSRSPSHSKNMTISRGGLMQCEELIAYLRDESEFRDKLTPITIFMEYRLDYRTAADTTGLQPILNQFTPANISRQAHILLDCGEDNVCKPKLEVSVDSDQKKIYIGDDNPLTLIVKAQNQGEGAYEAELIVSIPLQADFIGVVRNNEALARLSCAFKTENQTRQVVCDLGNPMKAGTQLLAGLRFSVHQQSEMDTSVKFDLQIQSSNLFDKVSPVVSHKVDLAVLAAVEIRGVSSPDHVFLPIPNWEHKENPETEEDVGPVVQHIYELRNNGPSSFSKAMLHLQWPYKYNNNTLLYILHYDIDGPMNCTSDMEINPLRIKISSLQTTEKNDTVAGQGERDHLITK
αv β3, sequence (P06756 891-1048 limits assumed): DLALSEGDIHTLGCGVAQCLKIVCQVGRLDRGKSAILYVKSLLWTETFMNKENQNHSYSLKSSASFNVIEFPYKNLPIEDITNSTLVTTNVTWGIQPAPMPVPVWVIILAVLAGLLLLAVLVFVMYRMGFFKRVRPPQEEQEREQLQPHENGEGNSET
αv β3, sequence (P05106 27-788): as the sequence (P05106 27-788) above

[5] = purified human platelet GPIIb/IIIa, ELISA

In the case of `CC(COc1ccc(N2CCN(c3ccncc3)CC2)cc1)CC(=O)O` (racemic) [Example 203, RS 3-Methyl-4-[4-[4-(4-pyridyl)piperazin-1-yl]phenoxy]butyric acid trifluoroacetate], the “adverse effects in the liver” value ([1]; rat, oral, 500 mg/kg/day, seven days) is reported as “Adverse effects were noted in the livers of six of the group of ten rats”, the “Test (a): pA2 value indicating potency of platelet aggregation inhibition” value [2] is reported as 7.2 and the “Test (b): pIC50 (-log(IC50)), 50% inhibition of biotinylated fibrinogen binding to GPIIb/IIIa” value [3, 5] is reported as 8.
`COC(=O)COc1ccc(C(=O)CN2CCN(c3ccncc3)CC2)cc1` [Example 1, Methyl 4-[2-[4-(4-pyridyl)piperazin-1-yl]acetyl]phenoxyacetate] was tested, and the “duration of activity when dosed orally” value [4] was “up to 12 hours”, the Kb [2] was 158 to 316 nM and the IC50 [3, 5] was 398 to 1580 nM.
`COCCNC(=O)CCCOc1ccc(N2CCN(c3ccncc3)CC2)cc1` [Example 201, N-2-Methoxyethyl-4-[4-[4-(4-pyridyl)piperazine-1-yl]phenoxy]butyramide, trifluoroacetate] gave a Kb [2] of 50100 nM and an IC50 [3, 5] greater than 100000 nM.
Compound `C=CCc1cc(N2CCN(c3ccncc3)CC2)ccc1OCCCC(=O)O` [Example 206] has a Kb [2] of 251 nM and an IC50 [3, 5] of 10 nM.
`CCCc1cc(N2CCN(c3ccncc3)CC2)ccc1OCCCC(=O)OCC` [Example 207, Ethyl 4-[2-n-propyl-4-[4-(4-pyridyl)piperazin-1-yl]phenoxy]butyrate] gave a Kb [2] of 316 nM and an IC50 [3, 5] of 1000 nM.
For `Cc1ccc(S(=O)(=O)NCC2CCN(C(=O)CN3CCN(c4ccncc4)CC3)CC2)cc1` [Example 222, N-[1-[2-[4-(4-Pyridyl)piperazin-1-yl]acetyl]piperidin-4-ylmethyl]-4-methylphenylsulphonamide], the Kb [2] was 316 nM and the IC50 [3, 5] was 2510 nM.
For `Cc1ccc(S(=O)(=O)NCCC2CCN(C(=O)CN3CCN(c4ccncc4)CC3)CC2)cc1` [Example 223, N-[2-[1-[2-[4-(4-pyridyl)piperazin-1-yl]acetyl]piperidin-4-ylethyl]-4-methylphenylsulphonamide, dihydrochloride], the Kb [2] was 1000 nM and the IC50 [3, 5] was 1580 nM.
For `CN(C)c1ccncc1CCCOc1ccc(OCCCC(=O)O)cc1` [Example 224, 4-[4-[3-(4-dimethylaminopyrid-3-yl)propyloxy]phenoxy]butyric acid], the Kb [2] was 31600 nM and the IC50 [3, 5] was 501 nM.
With `CCOC(=O)CCCOc1cccc(N2CCN(c3ccncc3)CC2)c1` [Example 226, Ethyl 3-[4-(4-pyridyl)piperazin-1-yl]phenoxybutyrate] the Kb [2] was 20000 nM and the IC50 [3, 5] was 3160 nM.
Compound `O=C(O)CCCOc1cccc(N2CCN(c3ccncc3)CC2)c1` [Example 227, 3-[4-(4-Pyridyl)piperazin-1-yl]phenoxybutyric acid] has a Kb [2] of 2510 nM and an IC50 [3, 5] of 100 nM.
Work on `CCOC(=O)CCCCOc1cccc(N2CCN(c3ccncc3)CC2)c1` [Example 228, Ethyl 3-[4-(4-pyridyl)piperazin-1-yl]phenoxypentanoate] yielded a Kb [2] of 10000 nM and an IC50 [3, 5] greater than 100000 nM.
In the case of `O=C(O)CCCCOc1cccc(N2CCN(c3ccncc3)CC2)c1` [Example 229, 3-[4-(4-Pyridyl)piperazin-1-yl]phenoxypentanoic acid], the Kb [2] is reported as 3980 nM and the IC50 [3, 5] is reported as 79.4 nM.
`COC(=O)[C@H]1CC[C@H](Oc2ccc(N3CCN(c4ccncc4)CC3)cc2)CC1` [Example 230, Trans-methyl-4-[4-[4-(4-pyridyl)piperazin-1-yl]phenoxy]cyclohexyl carboxylate] showed a Kb [2] of 10000 nM and an IC50 [3, 5] of 5010 nM.
Work on `O=C(O)[C@H]1CC[C@H](Oc2ccc(N3CCN(c4ccncc4)CC3)cc2)CC1` [Example 231, Trans-4-[4-[4-(4-pyridyl)piperazin-1-yl]phenoxy]cyclohexane carboxylic acid] yielded a Kb [2] of 200 nM and an IC50 [3, 5] of 31.6 nM.
Work on `O=C(O)c1ccc(Oc2ccc(N3CCN(c4ccncc4)CC3)cc2)nc1` [Example 233, 6-[4-[4-(4-Pyridyl)piperazin-1yl]phenoxy]pyridine-3-carboxylic acid] yielded a Kb [2] of 6310 nM and an IC50 [3, 5] of 501 nM.
In the case of `O=C(O)C1CCN(C(=O)c2ccc(N3CCN(c4ccncc4)CC3)cc2)CC1` [Example 234, 4-[(4-Pyridyl)piperazin-1-yl]benzoylisonipecotic acid], the Kb [2] is reported as 631 nM and the IC50 [3, 5] is reported as 200 nM.
For `O=C(O)C1CCCN(C(=O)c2ccc(N3CCN(c4ccncc4)CC3)cc2)C1` (stereo not drawn) [Example 235, 4-[(4-Pyridyl)piperazin-1-yl]benzoylnipecotic acid], the Kb [2] was 6310 nM and the IC50 [3, 5] was 200 nM.
`O=C(O)C1CCCC(Oc2ccc(N3CCN(c4ccncc4)CC3)cc2)C1` (stereo not drawn) [Example 237, 3-[4-[4-(Pyridyl)piperazin-1-yl]phenoxy]cyclohexane carboxylic acid] gave a Kb [2] of 794 nM and an IC50 [3, 5] of 31.6 nM.
In the case of `C[C@@H](COc1ccc(N2CCN(c3ccncc3)CC2)cc1)CC(=O)O.Cl` [Example 246, (-)-(3R)-3-Methyl-4-{4-[4-(4-pyridyl)piperazin-1-yl]phenoxy}butyric acid hydrochloride], the “pIC50, binding of αv β1 to fibronectin” value (αv β1) is reported as “less than 4”, the “toxicity relative to the (3RS)-racemic mixture (by implication)” value ([1]; rat oral studies compared) is reported as “less toxic than the (3RS)-racemic mixture of Example 203” and the “adverse effect on the rat liver (conclusion)” value ([1]; rat, 500 mg/kg/day) is reported as “no significant adverse effect on the rat liver”. For the same compound, the “adverse effects in the liver” value ([1]; rat, oral, 250 mg/kg/day, fourteen days) was “No adverse effects were noted in the livers”, the “tolerability of the highest dose” value ([1]; rat, oral, 1000 mg/kg daily) was “not tolerated” and the “adverse effect on the liver” value ([1]; rat, oral, 1000 mg/kg/day for three or four days then 500 mg/kg/day for ten or eleven days) was “no adverse effect on the liver”. The IC50 (αv β3) was greater than 100000 nM, the Kb [2] was 50.1 nM and the IC50 [3, 5] was 22.4 nM. For the same compound, the “potency as a GPIIb/IIIa antagonist relative to the corresponding (+)-(3S) isomer” value ([3]; versus (+)-(3S) isomer) was “greater than 10 fold”.
